Values of other authors in patent US20150230971A1, “MULTIPURPOSE DRUG DELIVERY SYSTEMS FOR LONG-TERM IMPLANTATION OR INSERTION” (PAT&CO BVBA, priority 2012, published 2015).

Tested on: rats and mice
Settings: carcinomas and/or precursor lesions of oral cavity, lips, tongue, esophagus, forestomach

## C=COC(C)=O [VAM, vinyl acetate monomer]
  carcinogenicity: increase in total malignant tumors
